SMILES strings stand for the structures. Like-named read-outs stand apart in the source and are kept apart here.

We go through 48 molecules from patent US6916812B2, “Alpha-aminoamide derivatives as melanocortin agonists” (Bristol-Myers Squibb Company, priority 2001, dated 2005).

In this assay the target is T1, cloned human MC4R (Homo sapiens, UniProt P32245).
T1 construct: made in house; host or cells: Hi5 insect cells (baculovirus infection); membrane preparation
Put plainly: Membrane binding assay: competitive inhibition of [125I]NDP-α-MSH binding. As to conditions: for inhibition at 10 µM: read-out: Displacement Rate (%) (at 10 μM); for IC50: read-out: MC4R IC50.

Where [1] appears, read: at 10 μM, [125I]NDP-α-MSH displacement.

T1 sequence (P32245 whole entry): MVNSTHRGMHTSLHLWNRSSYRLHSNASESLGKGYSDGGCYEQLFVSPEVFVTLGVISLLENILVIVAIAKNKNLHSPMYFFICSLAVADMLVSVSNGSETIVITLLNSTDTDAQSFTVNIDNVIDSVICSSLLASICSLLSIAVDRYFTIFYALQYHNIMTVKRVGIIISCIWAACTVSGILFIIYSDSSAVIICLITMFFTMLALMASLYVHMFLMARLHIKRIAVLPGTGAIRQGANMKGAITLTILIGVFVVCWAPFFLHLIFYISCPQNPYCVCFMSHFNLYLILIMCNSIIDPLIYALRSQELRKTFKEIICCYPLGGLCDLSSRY

Usually IC50 stands for the midpoint of a concentration-inhibition curve. For `N[C@@H](Cc1ccc(OCc2ccccc2)cc1)C(=O)N1CCN(CC2CCCCC2)CC1` [Example 113], the IC50 was less than 1500 nM. Further, under setting [1], the inhibition at 10 µM fell in the range of 71 to 90%. Regarding `N[C@@H](Cc1ccc(OCc2cc3c(cc2[N+](=O)[O-])OCO3)cc1)C(=O)N1CCN(Cc2cccc(Cl)c2Cl)CC1` [Example 229], the IC50 is more than 3000 nM. Moreover, under setting [1], the “Displacement Rate (%) (at 10 μM)” value is reported as “++ (++ = 71-90)”. `N[C@@H](Cc1ccc(OCc2ccccc2)cc1)C(=O)N1CCCN(Cc2cccc3ccccc23)CC1` [Example 47]: the IC50 was more than 3000 nM. Further, the inhibition at 10 µM under setting [1] was 35 to 70%. For `CN[C@@H](Cc1ccc(OCc2ccccc2)cc1)C(=O)N1CCN(Cc2cccc(Cl)c2Cl)CC1` [Example 165], the IC50 is less than 1500 nM. In the case of `N[C@@H](Cc1ccc(OCc2ccccc2)cc1)C(=O)N1CCN(Cc2cccc(C(F)(F)F)c2)CC1` [Example 123], the IC50 was more than 3000 nM. In addition, the inhibition at 10 µM under setting [1] is 71 to 90%. As for `CCc1ccc(CN2CCN(C(=O)[C@@H](N)Cc3ccc(OCc4ccccc4)cc3)CC2)s1` [Example 131], the IC50 was more than 3000 nM. The inhibition at 10 µM under setting [1] is 35 to 70%.

`N[C@@H](Cc1ccc(OCc2ccccc2)cc1)C(=O)N1CCCN(Cc2ccc(C(F)(F)F)cc2F)CC1` [Example 28]: the concentration for half-maximal inhibition (IC50) is more than 3000 nM. Also, the inhibition at 10 µM under setting [1] was 71 to 90%. The matching figures for `N[C@@H](Cc1ccc(OCc2ccccc2)cc1)C(=O)N1CCCN(Cc2cccc(Oc3cc(Cl)cc(Cl)c3)c2)CC1` [Example 4]: less than 1500 nM and 91 to 100%.

For `N[C@@H](Cc1ccc(-c2ccc3c(c2)OCO3)cc1)C(=O)N1CCN(Cc2cccc(Cl)c2Cl)CC1` [Example 319], the IC50 was in the range of 1500 to 3000 nM. For the same molecule, under setting [1], the “Displacement Rate (%) (at 10 μM)” value was “++ (++ = 71-90)”. For `CCOc1ccccc1CN1CCCN(C(=O)[C@@H](N)Cc2ccc(OCc3ccccc3)cc2)CC1` [Example 50], the half-maximal inhibitory concentration (IC50) was more than 3000 nM. Further, the inhibition at 10 µM under setting [1] was in the range of 35 to 70%.

For the molecule `N[C@@H](Cc1ccc(OCCc2cccc(C(F)(F)F)c2)cc1)C(=O)N1CCN(Cc2cccc(Cl)c2Cl)CC1` [Example 255], the half-inhibitory concentration (IC50) is less than 1500 nM. Moreover, the “Displacement Rate (%) (at 10 μM)” value under setting [1] is “+++ (+++ = 91-100)”. Consider `N[C@@H](Cc1ccc(OCc2ccc([N+](=O)[O-])cc2)cc1)C(=O)N1CCN(Cc2cccc(Cl)c2Cl)CC1` [Example 223], for which the half-maximal inhibitory concentration (IC50) was in the range of 1500 to 3000 nM. Besides, under setting [1], the “Displacement Rate (%) (at 10 μM)” value is on record as “+++ (+++ = 91-100)”. Regarding `N[C@@H](Cc1ccc(OCc2ccccc2)cc1)C(=O)N1CCN(Cc2cccc([N+](=O)[O-])c2)CC1` [Example 152], the IC50 was more than 3000 nM. Besides, the inhibition at 10 µM under setting [1] is 35 to 70%. As to `O=C([C@H](Cc1ccc(OCc2ccccc2)cc1)NCc1ccccc1)N1CCN(Cc2cccc(Cl)c2Cl)CC1` [Example 170], the IC50 was more than 3000 nM. In addition, under setting [1], the inhibition at 10 µM lay within 71 to 90%. Turning to `CC(=O)c1ccc(-c2ccc(C[C@H](N)C(=O)N3CCN(Cc4cccc(Cl)c4Cl)CC3)cc2)s1` [Example 342], the inhibition at 10 µM lay within 71 to 90% and the IC50 lay in the range of 1500 to 3000 nM. As to `CN(CCOc1ccc(C[C@H](N)C(=O)N2CCN(Cc3cccc(Cl)c3Cl)CC2)cc1)Cc1ccccc1` [Example 285], the 50% inhibitory concentration (IC50) fell in the range of 1500 to 3000 nM. The “Displacement Rate (%) (at 10 μM)” value under setting [1] is reported as “++ (++ = 71-90)”. On to `CCOc1cccc(-c2ccc(C[C@H](N)C(=O)N3CCN(Cc4cccc(Cl)c4Cl)CC3)cc2)c1` [Example 308], for which the IC50 was less than 1500 nM. The inhibition at 10 µM under setting [1] lay in the range of 91 to 100%. Turning to `CC(COc1ccccc1)N1CCCN(C(=O)[C@@H](N)Cc2ccc(OCc3ccccc3)cc2)CC1` (some centres unmarked) [Example 49], the IC50 is more than 3000 nM. The inhibition at 10 µM under setting [1] is 35 to 70%. With `CCOc1cccc(CN2CCN(C(=O)[C@@H](N)Cc3ccc(OCc4ccccc4)cc3)CC2)c1O` [Example 117], the IC50 is more than 3000 nM. Moreover, the inhibition at 10 µM under setting [1] is 71 to 90%. Turning to `N[C@@H](Cc1ccc(OCc2ccccc2)cc1)C(=O)N1CCCN(CCCc2ccccc2)CC1` [Example 42], the concentration for half-maximal inhibition (IC50) was more than 3000 nM. Besides, the inhibition at 10 µM under setting [1] lay in the range of 71 to 90%.

Take `Cc1ccc(COc2ccc(C[C@H](N)C(=O)N3CCN(Cc4cccc(Cl)c4Cl)CC3)cc2)cc1C` [Example 191]: the IC50 was less than 1500 nM. For the same molecule, the “Displacement Rate (%) (at 10 μM)” value under setting [1] is “+++ (+++ = 91-100)”. The matching figures for `N[C@@H](Cc1ccc(OCc2cccc(OCc3ccccc3)c2)cc1)C(=O)N1CCN(Cc2cccc(Cl)c2Cl)CC1` [Example 206]: less than 1500 nM and “+++ (+++ = 91-100)”. Turning to `COc1cc(CN2CCCN(C(=O)[C@@H](N)Cc3ccc(OCc4ccccc4)cc3)CC2)ccc1OCc1ccccc1` [Example 29], the half-inhibitory concentration (IC50) is 1500 to 3000 nM. Besides, the inhibition at 10 µM under setting [1] fell in the range of 71 to 90%. Take `N[C@@H](Cc1ccc(OCCc2cccc(Br)c2)cc1)C(=O)N1CCN(Cc2cccc(Cl)c2Cl)CC1` [Example 248]: the concentration for half-maximal inhibition (IC50) is less than 1500 nM. The “Displacement Rate (%) (at 10 μM)” value under setting [1] is recorded as “+++ (+++ = 91-100)”. `N[C@@H](Cc1ccc(OCc2ccccc2)cc1)C(=O)N1CCN(Cc2ccccc2-c2ccccc2)CC1` [Example 109]: the IC50 was more than 3000 nM. Further, the inhibition at 10 µM under setting [1] is 71 to 90%.

Take `CN(C)CCN[C@@H](Cc1ccc(OCc2ccccc2)cc1)C(=O)N1CCN(Cc2cccc(Cl)c2Cl)CC1` [Example 175]: the IC50 was less than 1500 nM. For the same molecule, under setting [1], the inhibition at 10 µM lay in the range of 91 to 100%. Consider `N[C@@H](Cc1ccc(OCc2ccc(-c3ccccc3)cc2)cc1)C(=O)N1CCN(Cc2cccc(Cl)c2Cl)CC1` [Example 198], for which the IC50 was less than 1500 nM. In addition, the “Displacement Rate (%) (at 10 μM)” value under setting [1] is recorded as “+++ (+++ = 91-100)”.

Turning to `Cc1cccc(COc2ccc(C[C@H](N)C(=O)N3CCN(Cc4cccc(Cl)c4Cl)CC3)cc2)c1` [Example 213], the IC50 is less than 1500 nM. Moreover, the “Displacement Rate (%) (at 10 μM)” value under setting [1] is “+++ (+++ = 91-100)”.

For `COc1cc(CN2CCN(C(=O)[C@@H](N)Cc3ccc(OCc4ccccc4)cc3)CC2)ccc1OCc1ccc([N+](=O)[O-])cc1` [Example 150], the IC50 is 1500 to 3000 nM. For the same molecule, the inhibition at 10 µM under setting [1] lay in the range of 35 to 70%. As to `N[C@@H](Cc1ccc(OCc2ccccc2)cc1)C(=O)N1CCCN(Cc2cc([N+](=O)[O-])ccc2Cl)CC1` [Example 34], the inhibition at 10 µM lay in the range of 71 to 90% and the IC50 is more than 3000 nM. With `N[C@@H](Cc1ccc(OCc2ccccc2)cc1)C(=O)N1CCCN(Cc2ccc(/C=C/c3ccccc3)cc2)CC1` [Example 11], the IC50 was less than 1500 nM. Also, under setting [1], the inhibition at 10 µM lay in the range of 91 to 100%.

Consider `N[C@@H](Cc1ccc(OCc2ccccc2)cc1)C(=O)N1CCN(Cc2cccc(Oc3cccc(C(F)(F)F)c3)c2)CC1` [Example 90], for which the IC50 was less than 1500 nM. The inhibition at 10 µM under setting [1] fell in the range of 91 to 100%. For `N[C@@H](Cc1ccc(-c2cccc(Cl)c2Cl)cc1)C(=O)N1CCN(Cc2cccc(Cl)c2Cl)CC1` [Example 299], the IC50 is less than 1500 nM. Under setting [1], the inhibition at 10 µM is 91 to 100%. The matching figures for `CCCCCCCN1CCCN(C(=O)[C@@H](N)Cc2ccc(OCc3ccccc3)cc2)CC1` [Example 46]: more than 3000 nM and 35 to 70%.

As to `COc1ccc(CCOc2ccc(C[C@H](N)C(=O)N3CCN(Cc4cccc(Cl)c4Cl)CC3)cc2)cc1OC` [Example 259], the IC50 was more than 3000 nM. For the same molecule, the “Displacement Rate (%) (at 10 μM)” value under setting [1] is recorded as “+ (+ = 35-70)”. The matching figures for `Cc1ccc(COc2ccc(C[C@H](N)C(=O)N3CCN(Cc4cccc(Cl)c4Cl)CC3)cc2)cc1` [Example 192]: less than 1500 nM and “+++ (+++ = 91-100)”. With `N[C@@H](Cc1ccc(OCCc2ccccc2-c2ccccc2)cc1)C(=O)N1CCN(Cc2cccc(Cl)c2Cl)CC1` [Example 253], the IC50 was less than 1500 nM. Under setting [1], the “Displacement Rate (%) (at 10 μM)” value is recorded as “+++ (+++ = 91-100)”. The matching figures for `COc1ccc(CCCOc2ccc(C[C@H](N)C(=O)N3CCN(Cc4cccc(Cl)c4Cl)CC3)cc2)cc1OC` [Example 265]: less than 1500 nM and “++ (++ = 71-90)”. Take `N[C@@H](Cc1ccc(OCc2ccccc2)cc1)C(=O)N1CCCN(Cc2ccccc2C(F)(F)F)CC1` [Example 22]: the IC50 was more than 3000 nM. Besides, the inhibition at 10 µM under setting [1] was in the range of 91 to 100%. The matching figures for `Nc1cccc(-c2ccc(C[C@H](N)C(=O)N3CCN(Cc4cccc(Cl)c4Cl)CC3)cc2)c1` [Example 333]: more than 3000 nM and 71 to 90%.

As to `N[C@@H](Cc1ccc(OCc2ccccc2)cc1)C(=O)N1CCN(Cc2ccccc2)CC1` [Example 141], the IC50 was more than 3000 nM. The inhibition at 10 µM under setting [1] was 35 to 70%.

In the case of `N[C@@H](Cc1ccc(OCc2cccc(C(F)(F)F)c2)cc1)C(=O)N1CCN(Cc2cccc(Cl)c2Cl)CC1` [Example 187], the IC50 fell in the range of 1500 to 3000 nM. For the same molecule, the “Displacement Rate (%) (at 10 μM)” value under setting [1] is on record as “+++ (+++ = 91-100)”.

With `N[C@@H](Cc1ccc(OCc2ccccc2)cc1)C(=O)N1CCN(Cc2cc(C(F)(F)F)cc(C(F)(F)F)c2)CC1` [Example 101], the IC50 is less than 1500 nM. In addition, the inhibition at 10 µM under setting [1] fell in the range of 91 to 100%. `N[C@@H](Cc1ccc(OCCc2ccc(F)cc2)cc1)C(=O)N1CCN(Cc2cccc(Cl)c2Cl)CC1` [Example 247]: the IC50 was less than 1500 nM. Moreover, under setting [1], the “Displacement Rate (%) (at 10 μM)” value is on record as “+++ (+++ = 91-100)”. For `N[C@@H](Cc1ccc(-c2cc(Cl)cc(Cl)c2)cc1)C(=O)N1CCN(Cc2cccc(Cl)c2Cl)CC1` [Example 312], the IC50 lay within 1500 to 3000 nM. In addition, the inhibition at 10 µM under setting [1] fell in the range of 91 to 100%. As for `N[C@@H](Cc1ccc(OCc2cc(Cl)cc(Cl)c2)cc1)C(=O)N1CCN(Cc2cccc(Cl)c2Cl)CC1` [Example 189], the IC50 was less than 1500 nM. Also, the “Displacement Rate (%) (at 10 μM)” value under setting [1] is reported as “+++ (+++ = 91-100)”. As to `N[C@@H](Cc1ccc(OCCc2ccc(Cl)cc2)cc1)C(=O)N1CCN(Cc2cccc(Cl)c2Cl)CC1` [Example 245], the IC50 was less than 1500 nM. For the same molecule, under setting [1], the “Displacement Rate (%) (at 10 μM)” value is “+++ (+++ = 91-100)”. The matching figures for `N[C@@H](Cc1ccc(OCc2ccccc2Cc2ccccc2)cc1)C(=O)N1CCN(Cc2cccc(Cl)c2Cl)CC1` [Example 215]: less than 1500 nM and “+++ (+++ = 91-100)”.
